The record followed here is ChEMBL document CHEMBL1137892, “Pyrimidine methyl anilines: selective potentiators for the metabotropic glutamate 2 receptor” (Bioorg Med Chem Lett, 2004).

Molecules are shown by their SMILES.

The first assay deals with Metabotropic glutamate receptor 3 (Homo sapiens) (UniProt Q14832). In words: Binding potency against Metabotropic glutamate receptor 3 was determined by measuring the concentration required to activate 50% of [35S]GTP-gamma-S, in presence of glutamate; inactive. Type of assay: functional.
Metabotropic glutamate receptor 3 (Homo sapiens), sequence (Q14832 23-879 limits assumed): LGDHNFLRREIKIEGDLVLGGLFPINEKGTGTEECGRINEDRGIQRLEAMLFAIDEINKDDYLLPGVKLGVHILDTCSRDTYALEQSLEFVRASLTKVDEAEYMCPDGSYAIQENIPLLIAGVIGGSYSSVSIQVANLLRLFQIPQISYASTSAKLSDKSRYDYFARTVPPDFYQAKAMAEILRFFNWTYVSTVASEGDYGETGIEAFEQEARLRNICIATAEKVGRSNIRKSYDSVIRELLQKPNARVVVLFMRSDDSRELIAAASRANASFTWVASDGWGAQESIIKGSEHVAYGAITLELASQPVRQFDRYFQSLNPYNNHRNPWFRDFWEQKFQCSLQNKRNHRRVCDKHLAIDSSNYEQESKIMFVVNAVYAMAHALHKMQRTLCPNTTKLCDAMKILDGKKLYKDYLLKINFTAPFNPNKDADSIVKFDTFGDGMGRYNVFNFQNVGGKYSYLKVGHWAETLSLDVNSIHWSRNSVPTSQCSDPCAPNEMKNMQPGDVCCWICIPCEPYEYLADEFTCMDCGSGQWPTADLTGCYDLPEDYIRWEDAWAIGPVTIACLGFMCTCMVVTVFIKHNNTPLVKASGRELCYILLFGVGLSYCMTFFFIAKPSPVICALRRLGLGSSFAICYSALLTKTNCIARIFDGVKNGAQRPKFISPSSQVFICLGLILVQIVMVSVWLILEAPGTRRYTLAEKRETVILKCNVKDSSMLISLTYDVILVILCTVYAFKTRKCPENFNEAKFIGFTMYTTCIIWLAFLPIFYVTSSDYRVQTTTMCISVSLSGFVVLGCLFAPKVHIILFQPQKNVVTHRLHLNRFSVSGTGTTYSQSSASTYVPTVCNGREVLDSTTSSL
`CCCC(C)Oc1cccc(N(Cc2cncnc2)S(=O)(=O)CC(F)(F)F)c1` (stereo unspecified): the Concentration was 10 µM.

In another assay the target is Metabotropic glutamate receptor 2 (Homo sapiens) (UniProt Q14416). In words: Level of potentiation of Metabotropic glutamate receptor 2 was determined by measuring the percentage activation of [35S]GTP-gamma-S, in the presence of 10 uM glutamate. Format: functional.
Metabotropic glutamate receptor 2 (Homo sapiens), sequence (Q14416 19-872 limits assumed): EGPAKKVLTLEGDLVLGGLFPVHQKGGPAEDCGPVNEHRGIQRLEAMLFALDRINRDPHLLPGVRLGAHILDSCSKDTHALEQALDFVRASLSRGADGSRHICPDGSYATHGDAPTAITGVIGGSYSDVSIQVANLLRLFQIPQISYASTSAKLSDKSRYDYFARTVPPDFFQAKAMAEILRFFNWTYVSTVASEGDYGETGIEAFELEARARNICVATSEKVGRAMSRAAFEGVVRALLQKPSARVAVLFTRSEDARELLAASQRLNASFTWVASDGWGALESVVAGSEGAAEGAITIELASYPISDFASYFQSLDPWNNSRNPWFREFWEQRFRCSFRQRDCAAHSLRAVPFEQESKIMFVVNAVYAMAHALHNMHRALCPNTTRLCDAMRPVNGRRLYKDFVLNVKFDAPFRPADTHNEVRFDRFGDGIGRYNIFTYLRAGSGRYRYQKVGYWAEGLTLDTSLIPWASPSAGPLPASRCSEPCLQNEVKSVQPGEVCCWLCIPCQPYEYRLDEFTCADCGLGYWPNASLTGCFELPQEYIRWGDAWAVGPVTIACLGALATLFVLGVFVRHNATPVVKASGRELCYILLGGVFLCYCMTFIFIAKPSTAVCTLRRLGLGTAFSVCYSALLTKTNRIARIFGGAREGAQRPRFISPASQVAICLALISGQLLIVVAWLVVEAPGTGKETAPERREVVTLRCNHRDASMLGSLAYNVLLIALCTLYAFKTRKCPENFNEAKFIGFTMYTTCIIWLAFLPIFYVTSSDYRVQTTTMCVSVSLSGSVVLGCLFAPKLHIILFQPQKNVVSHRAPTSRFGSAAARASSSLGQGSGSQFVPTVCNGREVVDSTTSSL
With `O=S(=O)(CC(F)(F)F)N(Cc1cncnc1)c1cccc(Oc2ccccc2)c1`, the Potentiation was determined as 52%.

With `CCCC(C)Oc1cccc(N(Cc2cncnc2)S(=O)(=O)CC(F)(F)F)c1` (stereo unspecified), the Potentiation is 31%.

Take `O=S(=O)(CC(F)(F)F)N(Cc1cncnc1)c1cccc(Cc2ccccc2)c1`: the Potentiation stood at 43%.

In the case of `O=S(=O)(CC(F)(F)F)N(Cc1cncnc1)c1cccc(Oc2ccccc2F)c1`, the Potentiation came out at 46%.

Regarding `O=S(=O)(CC(F)(F)F)N(Cc1cncnc1)c1cccc(Oc2ccccc2Br)c1`, the Potentiation came out at 40%.

As for `FC(F)(F)Oc1cccc(NCc2cncnc2)c1`, the Potentiation worked out at 26%.

Consider `COc1ccccc1Oc1ccc(N(Cc2cccnc2)S(=O)(=O)CC(F)(F)F)cc1`, for which the Potentiation amounted to 52%.

As to `Cc1ccccc1Oc1cccc(N(Cc2cncnc2)S(=O)(=O)CC(F)(F)F)c1`, the Potentiation worked out at 53%.

`COc1ccccc1Oc1cccc(N(Cc2cncnc2)S(=O)(=O)CC(F)(F)F)c1`: the Potentiation turned out to be 62%.

For `c1ccc(Cc2cccc(NCc3cncnc3)c2)cc1`, the Potentiation was determined as 31%.

For `c1ccc(NCc2cncnc2)cc1`, the Potentiation was 68%.

Take `O=S(=O)(CC(F)(F)F)N(Cc1cncnc1)c1ccc(Oc2ccccc2)cc1`: the Potentiation was found to be 37%.

As to `CC(C)(C)[Si](C)(C)OCc1cccc(N(Cc2cncnc2)S(=O)(=O)CC(F)(F)F)c1`, the Potentiation turned out to be 48%.

Take `O=S(=O)(CC(F)(F)F)N(Cc1cncnc1)c1cccc(OC2CCCC2)c1`: the Potentiation was determined as 60%.

With `O=S(=O)(CC(F)(F)F)N(Cc1cncnc1)c1cccc(COc2ccccc2)c1`, the Potentiation came out at 51%.

For the molecule `FC(F)(F)c1ccccc1Cc1cccc(NCc2cnc3ccccc3c2)c1`, the Potentiation worked out at 18%.

On to `O=C(OCc1cccc(N(Cc2cncnc2)S(=O)(=O)CC(F)(F)F)c1)c1ccccc1`, for which the Potentiation is 39%.

Regarding `O=S(=O)(CC(F)(F)F)N(Cc1cncnc1)c1cccc(Oc2ccccc2C(F)(F)F)c1`, the Potentiation was 73%.

Regarding `FC(F)(F)Oc1cccc(NCc2cnc3ccccc3c2)c1`, the Potentiation is 40%.

Turning to `CCCC(C)Oc1cccc(NCc2cnc3ccccc3c2)c1` (stereo unspecified), the Potentiation is 41%.

The next assay shares this target. In words: Binding potency against Metabotropic glutamate receptor 2 was determined by measuring the concentration required to activate 50% of [35S]GTP-gamma-S, in presence of 10 uM glutamate. Format: functional.
As for `O=S(=O)(CC(F)(F)F)N(Cc1cncnc1)c1cccc(Oc2ccccc2)c1`, the ED50 was found to be 660 nM.

In the case of `CCCC(C)Oc1cccc(N(Cc2cncnc2)S(=O)(=O)CC(F)(F)F)c1` (stereo unspecified), the ED50 turned out to be 350 nM.

Consider `O=S(=O)(CC(F)(F)F)N(Cc1cncnc1)c1cccc(Cc2ccccc2)c1`, for which the ED50 was found to be 540 nM.

Turning to `O=S(=O)(CC(F)(F)F)N(Cc1cncnc1)c1cccc(Oc2ccccc2F)c1`, the ED50 came to 860 nM.

As to `O=S(=O)(CC(F)(F)F)N(Cc1cncnc1)c1cccc(Oc2ccccc2Br)c1`, the ED50 came to 1100 nM.

In the case of `FC(F)(F)Oc1cccc(NCc2cncnc2)c1`, the ED50 was 19000 nM.

Take `COc1ccccc1Oc1ccc(N(Cc2cccnc2)S(=O)(=O)CC(F)(F)F)cc1`: the ED50 came out at 1700 nM.

As to `Cc1ccccc1Oc1cccc(N(Cc2cncnc2)S(=O)(=O)CC(F)(F)F)c1`, the ED50 amounted to 630 nM.

Turning to `COc1ccccc1Oc1cccc(N(Cc2cncnc2)S(=O)(=O)CC(F)(F)F)c1`, the ED50 came out at 760 nM.

Regarding `c1ccc(Cc2cccc(NCc3cncnc3)c2)cc1`, the ED50 was 710 nM.

As to `c1ccc(NCc2cncnc2)cc1`, the ED50 is 9600 nM.

As to `O=S(=O)(CC(F)(F)F)N(Cc1cncnc1)c1ccc(Oc2ccccc2)cc1`, the ED50 was determined as 560 nM.

On to `CC(C)(C)[Si](C)(C)OCc1cccc(N(Cc2cncnc2)S(=O)(=O)CC(F)(F)F)c1`, for which the ED50 was 660 nM.

On to `O=S(=O)(CC(F)(F)F)N(Cc1cncnc1)c1cccc(OC2CCCC2)c1`, for which the ED50 is 840 nM.

Consider `O=S(=O)(CC(F)(F)F)N(Cc1cncnc1)c1cccc(COc2ccccc2)c1`, for which the ED50 came to 1200 nM.

Take `FC(F)(F)c1ccccc1Cc1cccc(NCc2cnc3ccccc3c2)c1`: the ED50 came to 1000 nM.

In the case of `O=C(OCc1cccc(N(Cc2cncnc2)S(=O)(=O)CC(F)(F)F)c1)c1ccccc1`, the ED50 came to 810 nM.

In the case of `O=S(=O)(CC(F)(F)F)N(Cc1cncnc1)c1cccc(Oc2ccccc2C(F)(F)F)c1`, the ED50 worked out at 970 nM.

Regarding `FC(F)(F)Oc1cccc(NCc2cnc3ccccc3c2)c1`, the ED50 is 5200 nM.

As to `CCCC(C)Oc1cccc(NCc2cnc3ccccc3c2)c1` (stereo unspecified), the ED50 came out at 4300 nM.
